Results: US4731109A, “Herbicidal 2-haloacetanilides” (Monsanto Company, priority 1982, dated 1988)
Like-named read-outs stand apart in the source and are kept apart here.

Legend:
Toxicology studies, LD50 = conditions: in vivo
From the text: Toxicology studies on the compound of Example 1 have indicated the compound to be quite safe. […] No special handling procedures beyond normal precautions are deemed necessary.

soybeans = assay: Greenhouse pre-emergence GR15/GR85 selectivity test; type: in vivo; conditions: for GR15 Rate: Table XIV
How it was run: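 Active ingredient mixed into cover soil over seeded pans (pre-emergence soil incorporation), initial overhead irrigation equal to 0.64 cm rainfall, then subirrigation. Scored about 2-3 weeks after seeding; GR15 (crop) and GR85 (weed) rates in kg/ha, selectivity factor = crop GR15 / weed GR85.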

[1] = system: annual grasses, annual broadleafs and perennials; assay: Other tests, preemergence selective control or suppression of weeds; type: in vivo
Field Corn = assay: Field pre-emergence selectivity test; type: in vivo; conditions: Zea mays, 1008 h, 6 weeks, read-out: Percent Inhibition; for inhibition at 560 g/ha: 0.56 Kg/Ha; for inhibition at 1120 g/ha: 1.12 Kg/Ha; for inhibition at 2240 g/ha: 2.24 Kg/Ha; for inhibition at 4480 g/ha: 4.48 Kg/Ha
Protocol: The compound of Examples 1 and 2 was also tested in the field to determine its pre-emergence selectivity against foxtail (spp), barnyardgrass, wild proso millet, smartweed, lambsquarters and pigweed in a plurality of crops; the data (representing three replicate runs) are shown in Table VII for both surface application (S.A.) and soil incorporation (PPI, i.e., preplant incorporation) of the herbicide. The seeds were planted in a fine seedbed of silt loam of intermediate moisture. The seeds were planted at a depth of two inches (5.08 cm). First rainfall (0.2"; 0.51 cm) occurred the day following treatment, the second rain (0.25"; […]) two days after treatment; cumulative rainfall 22 days after treatment was 1.8" (4.57 cm). Observations were made 6 weeks after treatment.

Sweet Corn = assay: Field pre-emergence selectivity test; type: in vivo; conditions: Zea mays, 1008 h, 6 weeks, read-out: Percent Inhibition; for inhibition at 560 g/ha: 0.56 Kg/Ha; for inhibition at 1120 g/ha: 1.12 Kg/Ha; for inhibition at 2240 g/ha: 2.24 Kg/Ha; for inhibition at 4480 g/ha: 4.48 Kg/Ha
From the text: (§1) The seeds were planted in a fine seedbed of silt loam of intermediate moisture. The seeds were planted at a depth of two inches (5.08 cm). First rainfall (0.2"; 0.51 cm) occurred the day following treatment, the second rain (0.25"; […]) two days after treatment; cumulative rainfall 22 days after treatment was 1.8" (4.57 cm). Observations were made 6 weeks after treatment.

cotton = assay: Field pre-emergence selectivity test; type: in vivo; conditions: Gossypium hirsutum, 1008 h, 6 weeks, read-out: Percent Inhibition; for inhibition at 560 g/ha: 0.56 Kg/Ha; for inhibition at 1120 g/ha: 1.12 Kg/Ha; for inhibition at 2240 g/ha: 2.24 Kg/Ha; for inhibition at 4480 g/ha: 4.48 Kg/Ha
From the text: as §1

peanuts = assay: Field pre-emergence selectivity test; type: in vivo; conditions: 1008 h, 6 weeks, read-out: Percent Inhibition; for inhibition at 560 g/ha: 0.56 Kg/Ha; for inhibition at 1120 g/ha: 1.12 Kg/Ha; for inhibition at 2240 g/ha: 2.24 Kg/Ha; for inhibition at 4480 g/ha: 4.48 Kg/Ha
From the text: as §1

Lambsquarters = assay: Field pre-emergence selectivity test; type: in vivo; conditions: Chenopodium album, 1008 h, 6 weeks, read-out: Percent Inhibition; for inhibition at 560 g/ha: 0.56 Kg/Ha; for inhibition at 1120 g/ha: 1.12 Kg/Ha; for inhibition at 2240 g/ha: 2.24 Kg/Ha; for inhibition at 4480 g/ha: 4.48 Kg/Ha
From the text: as §1

Q: What does the source list for CCOCN(C(=O)CCl)c1c(C)cccc1C(F)(F)F [Example 1, N-(ethoxymethyl)-2'-trifluoromethyl-6'-methyl-2-chloroacetanilide]?
A: toxicity (Toxicology studies, LD50): slightly toxic; LD50 (Toxicology studies, LD50; po, read-out: OLD50): 2300 mg/kg; LD50 (Toxicology studies, LD50; read-out: MLD50): > 5010 mg/kg; GR15 Rate (soybeans): > 1.1 Kg/Ha; GR15 (soybeans; soybeans/purple nutsedge): 1.1 kg/ha; preemergence selective control or suppression of weeds ([1]; in soybeans, corn, cotton, peanuts, beans, potatoes, tree fruits, turf grasses): effectiveness for premergence selective control or suppression; competition from seedling johnsongrass, Texas panicum, sandbur, shattercane, Florida beggarweed, lambsquarters, ragweed, prickley sida and smartweed ([1]; in vivo): reduces competition; inhibition at 560 g/ha (Field Corn; P.P.I.): 0%; inhibition at 1120 g/ha (Field Corn; P.P.I.): 0%; inhibition at 2240 g/ha (Field Corn; P.P.I.): 5%; inhibition at 4480 g/ha (Field Corn; P.P.I.): 32%; inhibition at 560 g/ha (Field Corn; S.A.): 0%; inhibition at 1120 g/ha (Field Corn; S.A.): 0%; inhibition at 2240 g/ha (Field Corn; S.A.): 0%; inhibition at 4480 g/ha (Field Corn; S.A.): 15%; inhibition at 560 g/ha (Sweet Corn; P.P.I.): 0%; inhibition at 1120 g/ha (Sweet Corn; P.P.I.): 3%; inhibition at 2240 g/ha (Sweet Corn; P.P.I.): 27%; inhibition at 4480 g/ha (Sweet Corn; P.P.I.): 40%; inhibition at 560 g/ha (Sweet Corn; S.A.): 0%; inhibition at 1120 g/ha (Sweet Corn; S.A.): 0%; inhibition at 2240 g/ha (Sweet Corn; S.A.): 7%; inhibition at 560 g/ha (cotton; P.P.I.): 13%; inhibition at 1120 g/ha (cotton; P.P.I.): 32%; inhibition at 2240 g/ha (cotton; P.P.I.): 37%; inhibition at 4480 g/ha (cotton; P.P.I.): 82%; inhibition at 560 g/ha (cotton; S.A.): 0%; inhibition at 1120 g/ha (cotton; S.A.): 13%; inhibition at 2240 g/ha (cotton; S.A.): 20%; inhibition at 4480 g/ha (cotton; S.A.): 25%; inhibition at 560 g/ha (peanuts; P.P.I.): 17%; inhibition at 1120 g/ha (peanuts; P.P.I.): 13%; inhibition at 2240 g/ha (peanuts; P.P.I.): 15%; inhibition at 4480 g/ha (peanuts; P.P.I.): 28%; inhibition at 560 g/ha (peanuts; S.A.): 0%; inhibition at 1120 g/ha (peanuts; S.A.): 0%; inhibition at 2240 g/ha (peanuts; S.A.): 8%; inhibition at 4480 g/ha (peanuts; S.A.): 22%; inhibition at 560 g/ha (Lambsquarters; S.A.): 0%; inhibition at 1120 g/ha (Lambsquarters; S.A.): 13%; inhibition at 2240 g/ha (Lambsquarters; S.A.): 40%; inhibition at 4480 g/ha (Lambsquarters; S.A.): 67%

Q: With CC(C)OCN(C(=O)CCl)c1ccccc1C(F)(F)F [Example 2, N--(isopropoxymethyl)-2'-trifluoromethyl-2-chloroacetanilide] as the compound, how does the “GR15 Rate” value (soybeans) read?
A: > 1.1 Kg/Ha

Q: And the inhibition at 560 g/ha (Field Corn; P.P.I.)?
A: 0%

Q: And the inhibition at 1120 g/ha (Field Corn; P.P.I.)?
A: 0%

Q: What about the inhibition at 2240 g/ha (Field Corn; P.P.I.) of the same compound?
A: 0%

Q: What about the inhibition at 4480 g/ha (Field Corn; P.P.I.) of the same compound?
A: 13%

Q: What about the inhibition at 560 g/ha (Field Corn; S.A.) of the same compound?
A: 0%

Q: And the inhibition at 1120 g/ha (Field Corn; S.A.)?
A: 0%

Q: What about the inhibition at 2240 g/ha (Field Corn; S.A.) of the same compound?
A: 0%

Q: What about the inhibition at 4480 g/ha (Field Corn; S.A.) of the same compound?
A: 10%

Q: What about the inhibition at 560 g/ha (Sweet Corn; P.P.I.) of the same compound?
A: 0%

Q: What about the inhibition at 1120 g/ha (Sweet Corn; P.P.I.) of the same compound?
A: 0%

Q: And the inhibition at 2240 g/ha (Sweet Corn; P.P.I.)?
A: 13%

Q: And the inhibition at 4480 g/ha (Sweet Corn; P.P.I.)?
A: 35%

Q: And the inhibition at 560 g/ha (Sweet Corn; S.A.)?
A: 0%

Q: What about the inhibition at 1120 g/ha (Sweet Corn; S.A.) of the same compound?
A: 0%

Q: And the inhibition at 2240 g/ha (Sweet Corn; S.A.)?
A: 0%

Q: And the inhibition at 4480 g/ha (Sweet Corn; S.A.)?
A: 23%

Q: What about the inhibition at 560 g/ha (cotton; P.P.I.) of the same compound?
A: 10%

Q: And the inhibition at 1120 g/ha (cotton; P.P.I.)?
A: 23%

Q: What about the inhibition at 2240 g/ha (cotton; P.P.I.) of the same compound?
A: 30%

Q: And the inhibition at 4480 g/ha (cotton; P.P.I.)?
A: 75%

Q: What about the inhibition at 560 g/ha (cotton; S.A.) of the same compound?
A: 0%

Q: What about the inhibition at 1120 g/ha (cotton; S.A.) of the same compound?
A: 8%

Q: What about the inhibition at 2240 g/ha (cotton; S.A.) of the same compound?
A: 8%

Q: What about the inhibition at 4480 g/ha (cotton; S.A.) of the same compound?
A: 43%

Q: What about the inhibition at 560 g/ha (peanuts; P.P.I.) of the same compound?
A: 0%

Q: And the inhibition at 1120 g/ha (peanuts; P.P.I.)?
A: 5%

Q: What about the inhibition at 2240 g/ha (peanuts; P.P.I.) of the same compound?
A: 17%

Q: And the inhibition at 4480 g/ha (peanuts; P.P.I.)?
A: 45%

Q: What about the inhibition at 560 g/ha (peanuts; S.A.) of the same compound?
A: 0%

Q: And the inhibition at 1120 g/ha (peanuts; S.A.)?
A: 0%

Q: And the inhibition at 2240 g/ha (peanuts; S.A.)?
A: 5%

Q: What about the inhibition at 4480 g/ha (peanuts; S.A.) of the same compound?
A: 20%

Q: What about the inhibition at 2240 g/ha (Lambsquarters; P.P.I.) of the same compound?
A: 95%

Q: And the inhibition at 4480 g/ha (Lambsquarters; P.P.I.)?
A: 100%

Q: What about the inhibition at 560 g/ha (Lambsquarters; S.A.) of the same compound?
A: 0%

Q: And the inhibition at 1120 g/ha (Lambsquarters; S.A.)?
A: 7%

Q: What about the inhibition at 2240 g/ha (Lambsquarters; S.A.) of the same compound?
A: 20%

Q: What about the inhibition at 4480 g/ha (Lambsquarters; S.A.) of the same compound?
A: 62%
